Consider 26 compounds from patent publication US8592403B2, “Diazepine and diazocane compounds as MC4 agonists” (Pfizer Limited, priority 2008, dated 2013).

In data set [1] the target is T1, CYP3A4 (Homo sapiens, UniProt P08684).
T1 construct: utilizes human liver microsomes together with isoform-specific clinical drug probes; from tissue; host or cells: human liver microsomes
Description: High density DDI 3 μM cocktail screen in human liver microsomes, midazolam probe. Particulars: human, liver microsomes, probe midazolam, read-out: % inhibition 3A4 @ 3 μM. The format is in vitro ADME. On the procedure: High Density Drug-Drug Interactions (DDI) 3 μM Cocktail Screen
A drug interaction is a situation in which a substance affects the activity of another drug, i.e. the effects are increased or decreased, or together they produce a new effect that neither produces on its own. Drug interactions may be the result of various processes but a relatively common one is where one drug affects the pharmacokinetics of another by inhibiting the cytochrome P450 that metabolises it. Because of the importance of these phenomena, assessment of the DDI potential for new chemical entities (NCEs) is considered important early on in the drug discovery process.
The DDI cocktail screen in human liver microsomes (HLM) is run in a fully automated fashion and the aim of the screen is to provide a single-point assessment of the DDI potential of new chemical entity (NCE; tested at […]) against the 4 primary cytochrome P450 enzymes, 1A2, 2D6, 2C9 and 3A4.
The substrate cocktail approach for P450 DDI utilizes human liver microsomes together with isoform-specific clinical drug probes and permits the simultaneous measurement of the inhibition of P450 1A2, 2C9, 2D6 & 3A4 activities in a single incubation. This is run in high throughput with simultaneous detection of metabolites by LC-MS/MS. This method has been thoroughly tested and evaluated using standard compounds.
Appearance of the metabolite of each substrate is measured over time in the presence and absence of the NCE (test compound/inhibitor) at a concentration of 3 μM. The compounds are assessed for their inhibitory potential as a percentage value and interpreted using the following scheme.
Background: Liver microsomes are vesicles of endoplasmic reticulum, rich in cytochrome P450 enzymes.

For data set [2], the target named is MC4 receptor (Homo sapiens, UniProt P32245). Nature of the data set: MC4 EC50 functional potency (protocol E of US2005/0176772 / WO 2005/077935). The format is cell-based. On the procedure: The compounds of formula (I) of the present invention have utility as MCR4 agonists in the treatment of various disease states.
Chain of MC4 receptor (P32245 whole entry): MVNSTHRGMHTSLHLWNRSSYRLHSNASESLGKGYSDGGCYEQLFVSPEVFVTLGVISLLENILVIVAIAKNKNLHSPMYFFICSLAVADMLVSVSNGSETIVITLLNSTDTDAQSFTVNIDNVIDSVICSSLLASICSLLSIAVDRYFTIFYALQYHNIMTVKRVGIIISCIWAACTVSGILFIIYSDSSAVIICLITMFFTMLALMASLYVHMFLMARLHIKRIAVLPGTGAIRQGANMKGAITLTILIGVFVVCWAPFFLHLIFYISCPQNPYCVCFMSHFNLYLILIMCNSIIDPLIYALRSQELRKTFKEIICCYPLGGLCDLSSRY
MC5 and MC4 EC50 activity was determined as described by assay protocols D and E, respectively, in US2005/0176772 (pages 28-30).

Data set [3] is described as follows: In vitro metabolism rate determination, human liver microsome (HLM) assay. The format is in vitro ADME. The following applies: human, liver microsomes, read-out: HLM: Clint, app. An excerpt: In Vitro Metabolism Rate Determination (Human Liver Microsome (HLM); Rat Liver Microsome (RLM) Assay)
Many drugs are metabolised by the cytochrome P450 mono-oxygenase system. This enzyme is found in high concentrations in the liver and is bound to the endoplasmic reticulum of the hepatocyte. The enzyme system can be obtained in semi-purified state by the preparation of the hepatic microsomal fractions. Determining a compound's in vitro half-life in such a system provides a useful indicator of metabolic stability.
Methodology for In Vitro Rate Determination Using Hepatic & Supermix Microsomes
The method outlined below is for a total incubation volume of 1.5 ml.
1. The following mixture is prepared in a test tube:
2. Defrost microsomes at room temperature and add sufficient microsomes to give a final concentration of 0.5 nmol cytochrome P450/ml of incubation e.g. for a 1.5 ml incubation, the volume of microsomes to be added is:
3. Add sufficient MilliQ water to give a total incubation volume of 1.425 ml.
6. Add substrate to the incubation. The substrate should be at an initial concentration of 1 μM. The volume of substrate required in the remaining 1.162.5 ml incubation is calculated as follows: […]
8. Pre-incubate the tube containing the incubation mix, also positive control and no cofactor tubes in the thermostatically controlled shaking water bath set at 37° C. for approx 5 min.
9. Add NADP to initiate reaction (75 μl to each 1.162.5 ml incubation mix, 12.5 μl to positive control tube and 5 μl to no substrate tube) and take first time point immediately. The PNA positive control, no cofactor control and no substrate tubes are incubated for the total incubation time.
10. Remove 100 μl aliquots up to 9 different sampling points from 0 to 60 min (usually 0, 3, 5, 10, 15, 20, 30, 45 & 60 min) and terminate reaction. Longer incubation times can be used, but, after 120 min the microsomes deteriorate. The reaction may be terminated by addition of organic solvent, acid or base. At the end of the incubation process the no cofactor and no substrate controls in a similar manner i.e. terminate with the same reagent.
11. Analyse samples (including no cofactor and no substrate control) by a specific assay for the substrate to determine the disappearance kinetics.
Data obtained using the procedure described above can be quantified in terms of the substrates in vitro intrinsic clearance (Clint). Providing that the substrate concentration is below Km, the metabolism should be 1st order giving a log-linear plot of substrate disappearance with time.
The gradient of this line is the first order rate constant (k) for the substrate disappearance and is determined by regression analysis. This rate constant can be converted to the half-life according to the following equation.
Alternatively the rate constant can be converted to an intrinsic clearance (Clint) according to the following equation:— Clint(μl/min/mg)=(k/protein concentration in incubation (mg/ml))*1000

T1 sequence (P08684 whole entry, canonical isoform): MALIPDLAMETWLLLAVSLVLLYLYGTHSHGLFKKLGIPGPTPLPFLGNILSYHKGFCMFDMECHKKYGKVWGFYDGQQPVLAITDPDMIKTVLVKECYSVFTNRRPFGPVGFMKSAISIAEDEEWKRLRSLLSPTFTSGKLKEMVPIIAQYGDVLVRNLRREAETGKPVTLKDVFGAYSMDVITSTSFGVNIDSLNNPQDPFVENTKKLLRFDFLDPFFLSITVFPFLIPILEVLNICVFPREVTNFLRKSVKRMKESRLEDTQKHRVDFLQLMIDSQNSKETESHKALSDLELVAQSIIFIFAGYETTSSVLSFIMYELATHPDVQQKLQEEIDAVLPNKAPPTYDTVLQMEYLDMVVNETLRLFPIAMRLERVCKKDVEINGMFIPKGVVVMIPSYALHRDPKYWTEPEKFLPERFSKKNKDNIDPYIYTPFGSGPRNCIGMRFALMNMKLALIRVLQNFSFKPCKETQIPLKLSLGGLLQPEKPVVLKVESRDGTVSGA

Usually inhibition stands for the percentage by which the read-out fell short of the control. As usually defined, the EC50 is the concentration that produces a half-maximal response. A high value points to a need for much substance. As for `CC(=O)N1CCN(C(=O)[C@@H]2CN(C(C)(C)C)C[C@H]2c2ccc(F)cc2F)CCC1c1ccc(F)cc1F` (mixture of isomers) [Example 18], the inhibition at 3 µM in data set [1] amounted to 24.2%. Further, it took 152 nM to reach a half-maximal effect in data set [2] (EC50). The microsomal CLint at 1 μM in data set [3] is 34 µL/min/mg.
With `CC(C)(C)N1C[C@@H](C(=O)N2CCC(c3ccc(F)cc3F)N(S(C)(=O)=O)CC2)[C@H](c2ccc(F)cc2F)C1` (mixture of isomers) [Example 43], the concentration giving a half-maximal response (EC50) in data set [2] is 397 nM. In addition, the microsomal CLint at 1 μM in data set [3] was determined as 52 µL/min/mg.
Take `COC(=O)N1CCN(C(=O)[C@@H]2CN(C(C)(C)C)C[C@H]2c2ccc(F)cc2F)CCC1c1ccc(F)cc1F` (mixture of isomers) [Example 54]: in data set [2], the half-maximal effective concentration (EC50) was found to be 44.8 nM. Moreover, the microsomal CLint at 1 μM in data set [3] amounted to 32.8 µL/min/mg.
`CS(=O)(=O)N1CCN(C(=O)[C@@H]2CN(c3ccc(C#N)nn3)C[C@H]2c2ccc(F)cc2F)CCCC1c1ccc(F)cc1` (mixture of isomers) [Example 77]: the inhibition at 3 µM in data set [1] turned out to be 56.5%. In data set [2], this compound displayed an EC50 of 54.6 nM. Besides, in data set [3], the microsomal CLint at 1 μM was determined as 43 µL/min/mg.
In data set [2], `CC(=O)N1CCN(C(=O)[C@@H]2CN(C(C)(C)C)C[C@H]2c2ccc(F)cc2F)CCC1c1ccc(Cl)cc1` (mixture of isomers) [Example 84] came in with an EC50 of 206 nM. Also, in data set [3], the microsomal CLint at 1 μM was determined as 27.9 µL/min/mg.
For the compound `CC(C)(C)N1C[C@@H](C(=O)N2CCC(c3ccc(Cl)cc3)N(S(C)(=O)=O)CC2)[C@H](c2ccc(F)cc2F)C1` (mixture of isomers) [Example 85], in data set [1], the inhibition at 3 µM was found to be 30.5%. In data set [2], the EC50 stood at 404 nM. Also, in data set [3], the microsomal CLint at 1 μM is 48.4 µL/min/mg.
As to `COC(=O)N1CCN(C(=O)[C@@H]2CN(C(C)(C)C)C[C@H]2c2ccc(F)cc2F)CCC1c1ccc(Cl)cc1` (mixture of isomers) [Example 86], the inhibition at 3 µM in data set [1] was found to be 20.3%. The compound also came in with a concentration for a half-maximal effect (EC50) in data set [2] of 97.2 nM. In addition, in data set [3], the microsomal CLint at 1 μM stood at 29.6 µL/min/mg.
On the same counts, the results for `CCC(=O)N1CCN(C(=O)[C@@H]2CN(C(C)(C)C)C[C@H]2c2ccc(Cl)cn2)CCC[C@H]1c1ccc(Cl)cc1` [Example 19] are 41%, 64.8 nM and 62.6 µL/min/mg.
In the case of `CC(=O)N1CCN(C(=O)C2CN(c3ccc(C#N)nn3)C[C@H]2c2ccc(F)cc2F)CCC[C@H]1c1ccc(Cl)cc1` (stereo partly shown) [Example 21], in data set [1], the inhibition at 3 µM turned out to be 35.1%.
As for `CC(=O)N1CCN(C(=O)[C@@H]2CN(c3ccc(C#N)nn3)C[C@H]2c2ccc(F)cc2F)CCC[C@H]1c1ccc(Cl)cc1` [Example 21], the EC50 in data set [2] turned out to be 9.42 nM. This counts as single-digit nanomolar.
With `CC(C)C(=O)N1CCN(C(=O)[C@@H]2CN(c3ccc(C#N)nn3)C[C@H]2c2ccc(F)cc2F)CCC[C@H]1c1ccc(Cl)cc1` [Example 22], the inhibition at 3 µM in data set [1] came out at 59.2%. For the same compound, the 50% effective concentration (EC50) in data set [2] turned out to be 5.25 nM.
For `COc1ccc([C@@H]2CN(c3ccc(C#N)nn3)C[C@H]2C(=O)N2CCC[C@@H](c3ccc(Cl)cc3)N(C(=O)C3CC3)CC2)c(F)c1` [Example 23], the inhibition at 3 µM in data set [1] came out at 56.2%. In addition, in data set [2], a half-maximal effect (EC50) was put at 4.31 nM. Also, the microsomal CLint at 1 μM in data set [3] was found to be 29.1 µL/min/mg.
On the same counts, the results for `COc1ccc([C@@H]2CN(c3ccc(C#N)nn3)C[C@H]2C(=O)N2CCC[C@@H](c3ccc(Cl)cc3)N(C(=O)C(C)C)CC2)c(F)c1` [Example 24] are 43.4%, 2.27 nM and 37.3 µL/min/mg.
For the compound `COc1ccc([C@@H]2CN(c3ccc(C#N)nn3)C[C@H]2C(=O)N2CCC[C@@H](c3ccc(Cl)cc3)N(C(=O)CC(F)(F)F)CC2)c(F)c1` [Example 26], the inhibition at 3 µM in data set [1] came out at 20.4%. Further, the 50% effective concentration (EC50) in data set [2] came to 8.31 nM. Besides, the microsomal CLint at 1 μM in data set [3] came to 30.2 µL/min/mg.
On the same counts, the results for `COc1ccc([C@@H]2CN(c3ccc(=O)n(C)n3)C[C@H]2C(=O)N2CCC[C@@H](c3ccc(Cl)cc3)N(C(C)=O)CC2)c(F)c1` [Example 27] are 25.7%, 5.02 nM and 20.4 µL/min/mg.
For `CCC(=O)N1CCN(C(=O)[C@@H]2CN(c3ccc(=O)n(C)n3)C[C@H]2c2ccc(OC)cc2F)CCC[C@H]1c1ccc(Cl)cc1` [Example 28], in data set [1], the inhibition at 3 µM is 40.8%. Moreover, the midpoint of the response in data set [2], the EC50, lay at 3.4 nM. The microsomal CLint at 1 μM in data set [3] came out at 21.5 µL/min/mg.
As for `COc1ccc([C@@H]2CN(c3ccc(=O)n(C)n3)C[C@H]2C(=O)N2CCC[C@@H](c3ccc(Cl)cc3)N(C(=O)CC(F)(F)F)CC2)c(F)c1` [Example 30, 6-[(3S,4R)-3-{[5S-(4-chlorophenyl)-4-(3,3,3-trifluoropropanoyl)-1,4-diazocan-1-yl]carbonyl}-4-(2-fluoro-4-methoxyphenyl)pyrrolidin-1-yl]-2-methylpyridazin-3(2H)-one], the inhibition at 3 µM in data set [1] amounted to 36.8%. The EC50 in data set [2] is 6.01 nM. The microsomal CLint at 1 μM in data set [3] stood at 18.2 µL/min/mg.
`CC(=O)N1CCN(C(=O)[C@@H]2CN(c3ccc(=O)n(C)n3)C[C@H]2c2ccc(F)cc2F)CCC[C@H]1c1ccc(Cl)cc1` [Example 32]: the response in data set [2] was half-maximal at 6.63 nM (EC50). Moreover, the microsomal CLint at 1 μM in data set [3] was 14.8 µL/min/mg.
With `CCC(=O)N1CCN(C(=O)[C@@H]2CN(c3ccc(=O)n(C)n3)C[C@H]2c2ccc(F)cc2F)CCC[C@H]1c1ccc(Cl)cc1` [Example 35], the inhibition at 3 µM in data set [1] came to 68.3%. Further, a half-maximal response in data set [2] (EC50) required 5.29 nM.
For `CC(=O)N1CCN(C(=O)[C@@H]2CN(c3ccc(=O)n(C)n3)C[C@H]2c2ccc(Cl)cn2)CCC[C@H]1c1ccc(Cl)cc1` [Example 36], in data set [2], it took 7.67 nM to reach a half-maximal effect (EC50).
On the same count and under the same terms, under `CCC(=O)N1CCN(C(=O)[C@@H]2CN(c3ccc(=O)n(C)n3)C[C@H]2c2ccc(Cl)cn2)CCC[C@H]1c1ccc(Cl)cc1` [Example 38] stands 6.9 nM.
As for `CCOC(=O)N1CCN(C(=O)[C@@H]2CN(C(C)(C)C)C[C@H]2c2ccc(F)cc2F)CCC[C@H]1c1ccc(Cl)cc1` [Example 52], the inhibition at 3 µM in data set [1] worked out at 0%. The same compound had an EC50 in data set [2] of 35.2 nM.
Taken in the same sequence, the figures for `N#Cc1ccc(N2C[C@@H](C(=O)N3CCC[C@@H](c4ccc(Cl)cc4)N(C(=O)CC(F)(F)F)CC3)[C@H](c3ccc(F)cc3F)C2)nn1` [Example 58] were 46.5% and 22.1 nM.
The compound `CC(C)(C)N1C[C@@H](C(=O)N2CCC[C@@H](c3ccc(Cl)cc3)N(C(=O)C3N=CC=N3)CC2)[C@H](c2ccc(F)cc2F)C1` [Example 64] displayed an EC50 in data set [2] of 247 nM.
For `COC(=O)N1CCN(C(=O)C2CN(c3ccc(C#N)nn3)C[C@H]2c2ccc(OC)cc2F)CCC[C@@H]1c1ccc(Cl)cc1` (stereo partly shown) [Example 88], the inhibition at 3 µM in data set [1] was 21.5%. In addition, in data set [3], the microsomal CLint at 1 μM is 40.1 µL/min/mg.
With `COC(=O)N1CCN(C(=O)C2CN(c3ccc(C#N)nn3)CC2c2ccc(OC)cc2F)CCC[C@H]1c1ccc(Cl)cc1` (stereo partly shown) [Example 89], the inhibition at 3 µM in data set [1] is 28.5%. Moreover, the microsomal CLint at 1 μM in data set [3] amounted to 42.9 µL/min/mg.
